SMILES strings stand for the structures.

The values that follow come from patent publication US10689354B2, “Aminoazole derivative” (Teijin Pharma Limited, priority 2015, dated 2020).

In experiment [1] the target is T1, androgen receptor (AR-LBD) (Rattus norvegicus, UniProt P15207).
T1 construct: 5 μL of 2×AR-LBD/Fluoromone AL Red Complex contained in the kit; purchased Invitrogen
T1 sequence (P15207 651-882 limits assumed): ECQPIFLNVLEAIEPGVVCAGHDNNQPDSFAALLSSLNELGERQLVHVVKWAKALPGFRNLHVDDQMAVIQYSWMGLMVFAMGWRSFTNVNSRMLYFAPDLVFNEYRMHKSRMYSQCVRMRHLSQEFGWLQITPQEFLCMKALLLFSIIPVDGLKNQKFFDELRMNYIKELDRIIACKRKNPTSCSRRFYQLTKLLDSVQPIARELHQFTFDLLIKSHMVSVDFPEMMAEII
Nature of the experiment: Evaluation of androgen receptor affinity (PolarScreen Androgen Receptor Competitor Assay Kit, Red; fluorescence polarization). The settings on record: 22° C. for 5 hours, relative to binding rate of 1 μM DHT, read-out: AR affinity (pEC50) (converted). Summed up:
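Fluorescence polarization competition assay: compound was incubated in duplicate with the kit's AR-LBD/Fluoromone AL Red complex for 5 h at 22 °C. Binding was expressed relative to 1 μM DHT, and pEC50 was derived by 4-parameter fit.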

The target of experiment [2] is T2, human androgen receptor (Homo sapiens, UniProt P10275).
T2 construct: expressed in transfected cells; host or cells: HEK293
T2 sequence (P10275 1-920): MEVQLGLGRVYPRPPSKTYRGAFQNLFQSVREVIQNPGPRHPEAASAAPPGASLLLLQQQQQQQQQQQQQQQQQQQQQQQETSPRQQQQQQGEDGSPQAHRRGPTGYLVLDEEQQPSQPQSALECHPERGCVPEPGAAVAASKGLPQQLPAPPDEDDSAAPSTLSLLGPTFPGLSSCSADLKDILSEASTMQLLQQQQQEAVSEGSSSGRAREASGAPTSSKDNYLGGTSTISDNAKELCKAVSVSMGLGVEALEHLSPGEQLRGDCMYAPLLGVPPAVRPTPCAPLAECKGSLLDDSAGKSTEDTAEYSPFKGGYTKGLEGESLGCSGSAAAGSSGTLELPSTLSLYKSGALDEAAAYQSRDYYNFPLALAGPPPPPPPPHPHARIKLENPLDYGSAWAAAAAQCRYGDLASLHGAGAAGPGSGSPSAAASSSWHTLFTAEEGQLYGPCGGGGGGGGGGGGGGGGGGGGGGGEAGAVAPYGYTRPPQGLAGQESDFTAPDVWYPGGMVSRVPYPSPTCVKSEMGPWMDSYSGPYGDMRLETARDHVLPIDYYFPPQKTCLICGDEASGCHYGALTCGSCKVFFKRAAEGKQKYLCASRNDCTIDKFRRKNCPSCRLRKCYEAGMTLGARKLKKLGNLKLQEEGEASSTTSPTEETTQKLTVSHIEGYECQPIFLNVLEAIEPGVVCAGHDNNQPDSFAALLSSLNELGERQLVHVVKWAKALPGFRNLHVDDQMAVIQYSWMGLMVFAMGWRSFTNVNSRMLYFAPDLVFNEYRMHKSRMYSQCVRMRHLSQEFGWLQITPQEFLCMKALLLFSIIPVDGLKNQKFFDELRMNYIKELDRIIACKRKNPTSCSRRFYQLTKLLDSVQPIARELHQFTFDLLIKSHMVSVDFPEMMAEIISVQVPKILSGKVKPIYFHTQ
Nature of the experiment: Reporter assay of an androgen receptor responsive sequence (luciferase, transiently transfected HEK293 cells). The format is cell-based. The settings on record: 24 hours incubation, relative to activity of 100 nM DHT, read-out: AR transcriptive activity (pEC50) (converted). Summed up:
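HEK293 cells transiently transfected for 3 h with ARE-firefly luciferase, full-length human AR and TK-Renilla plasmids, then exposed to compound for 24 h at 37 °C in 5% charcoal-treated FBS/DMEM. Dual-Glo luminescence read; pEC50 from 4-parameter fit relative to 100 nM DHT.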
(Reporter assays use an easily measured gene product as a stand-in for the process of interest.)

On to `Cc1sc(N(Cc2nc(C3CC3)no2)c2ccc(C#N)cc2)nc1C(=O)NS(C)(=O)=O` [Example 196, 2-[4-cyano-N-[(3-cyclopropyl-1,2,4-oxadiazol-5-yl)methyl]anilino]-5-methyl-N-methylsulfonyl-thiazole-4-carboxamide], for which the EC50 was 631 nM in experiment [1] and 1580 nM in experiment [2].
Taken in the same sequence, the figures for `COCCCS(=O)(=O)NC(=O)c1nc(N(Cc2nc(C3CC3)no2)c2ccc(C#N)cc2)sc1C` [Example 197, 2-[4-cyano-N-[(3-cyclopropyl-1,2,4-oxadiazol-5-yl)methyl]anilino]-N-(3-methoxypropylsulfonyl)-5-methyl-thiazole-4-carboxamide] were 1260 nM and 3980 nM.
Take `Cc1sc(N(Cc2ccc(OC(F)(F)F)cc2)c2ccc(C#N)cc2)nc1C(=O)NS(=O)(=O)CS(C)(=O)=O` [Example 198, 2-[4-cyano-N-[[4-(trifluoromethoxy)phenyl]methyl]anilino]-5-methyl-N-(methylsulfonylmethylsulfonyl)thiazole-4-carboxamide]: the EC50 is 39.8 nM in experiment [1] and greater than 10000 nM in experiment [2].
For `Cc1sc(N(Cc2ccc(OC(F)(F)F)cc2)c2ccc(C#N)cc2)nc1C(=O)NS(=O)(=O)CCCC#N` [Example 199, N-(3-cyanopropylsulfonyl)-2-[4-cyano-N-[[4-(trifluoromethoxy)phenyl]methyl]anilino]-5-methyl-thiazole-4-carboxamide] the same measures were 39.8 nM and 1000 nM.
Taken in the same sequence, the figures for `Cc1sc(N(Cc2ccc(OC(F)(F)F)cc2)c2ccc(C#N)cc2)nc1C(=O)NS(=O)(=O)CCCO` [Example 200, 2-[4-cyano-N-[[4-(trifluoromethoxy)phenyl]methyl]anilino]-N-(3-hydroxypropylsulfonyl)-5-methyl-thiazole-4-carboxamide] were 25.1 nM and 316 nM.
Take `Cc1sc(N(Cc2ccc(OC(F)(F)F)cc2)c2ccc(C#N)cc2)nc1C(=O)NS(=O)(=O)CCCCO` [Example 201, 2-[4-cyano-N-[[4-(trifluoromethoxy)phenyl]methyl]anilino]-N-(4-hydroxybutylsulfonyl)-5-methyl-thiazole-4-carboxamide]: the EC50 in experiment [1] and in experiment [2] was 39.8 nM each time.
Take `Cc1sc(N(Cc2ccc(OC(F)(F)F)cc2)c2ccc(C#N)cc2)nc1C(=O)NS(=O)(=O)CC1CCOC1` (stereo not shown) [Example 202, 2-[4-cyano-N-[[4-(trifluoromethoxy)phenyl]methyl]anilino]-5-methyl-N-(tetrahydrofuran-3-ylmethylsulfonyl)thiazole-4-carboxamide]: the results for the EC50 in experiment [1] and in experiment [2] were 31.6 nM and 126 nM, respectively.
For `Cc1sc(N(Cc2cccc(N)c2)c2ccc(C#N)cc2)nc1C(=O)NS(C)(=O)=O` [Example 203, 2-[N-[(3-aminophenyl)methyl]-4-cyano-anilino]-5-methyl-N-methylsulfonyl-thiazole-4-carboxamide] the same measures were 316 nM and 631 nM.
As for `Cc1sc(N(Cc2cccc(N(C)C)c2)c2ccc(C#N)cc2)nc1C(=O)NS(C)(=O)=O` [Example 215, 2-[4-cyano-N-[[3-(dimethylamino)phenyl]methyl]anilino]-5-methyl-N-methylsulfonyl-thiazole-4-carboxamide], the EC50 in experiment [1] is 50.1 nM; in experiment [2], 200 nM.
On to `Cc1sc(N(Cc2cccc(N3CCCC3)c2)c2ccc(C#N)cc2)nc1C(=O)NS(C)(=O)=O` [Example 216, 2-[4-cyano-N-[(3-pyrrolidin-1-ylphenyl)methyl]anilino]-5-methyl-N-methylsulfonyl-thiazole-4-carboxamide], for which the EC50 is 63.1 nM in experiment [1] and 1260 nM in experiment [2].
Take `Cc1sc(N(Cc2cccc(N3CCCCC3)c2)c2ccc(C#N)cc2)nc1C(=O)NS(C)(=O)=O` [Example 217, 2-[4-cyano-N-[[3-(1-piperidyl)phenyl]methyl]anilino]-5-methyl-N-methylsulfonyl-thiazole-4-carboxamide]: the EC50 in experiment [1] is 50.1 nM; in experiment [2] it was 3160 nM.
Regarding `Cc1sc(N(Cc2cccc(-n3ccnc3)c2)c2ccc(C#N)cc2)nc1C(=O)NS(C)(=O)=O` [Example 218, 2-[4-cyano-N-[(3-imidazol-1-ylphenyl)methyl]anilino]-5-methyl-N-methylsulfonyl-thiazole-4-carboxamide], the results for the EC50 in experiment [1] and in experiment [2] were 251 nM and greater than 10000 nM, respectively.
For `Cc1sc(N(Cc2cccc(-n3cccn3)c2)c2ccc(C#N)cc2)nc1C(=O)NS(C)(=O)=O` [Example 219, 2-[4-cyano-N-[(3-pyrazol-1-ylphenyl)methyl]anilino]-5-methyl-N-methylsulfonyl-thiazole-4-carboxamide] the same measures were 63.1 nM and 1580 nM.
`Cc1oc(N(CCc2ccc(Cl)cc2)Cc2ccccc2)nc1C(=O)NS(C)(=O)=O` [Example 220, 2-[benzyl-[2-(4-chlorophenyl)ethyl]amino]-5-methyl-N-methylsulfonyl-oxazole-4-carboxamide]: the results for the EC50 in experiment [1] and in experiment [2] were 39.8 nM and 316 nM, respectively.
Consider `CS(=O)(=O)NC(=O)c1nc(N(Cc2ccc3occc3c2)c2ccc(C#N)cc2)sc1Br` [Example 221, 2-[N-(benzofuran-5-ylmethyl)-4-cyano-anilino]-5-bromo-N-methylsulfonyl-thiazole-4-carboxamide], for which the values for the EC50 in experiment [1] and in experiment [2] were 39.8 nM and 50.1 nM, respectively.
Turning to `Cc1sc(N(Cc2ccccc2)c2ccc(C#N)c(F)c2)nc1C(=O)NS(C)(=O)=O` [Example 222, 2-(N-benzyl-4-cyano-3-fluoro-anilino)-5-methyl-N-methylsulfonyl-thiazole-4-carboxamide], the EC50 is 200 nM in experiment [1] and 251 nM in experiment [2].
For `Cc1sc(N(Cc2ccccc2)c2ccc(C(F)(F)F)nc2)nc1C(=O)NS(C)(=O)=O` [Example 223, 2-[benzyl-[6-(trifluoromethyl)-3-pyridyl]amino]-5-methyl-N-methylsulfonyl-thiazole-4-carboxamide] the same measures were 398 nM and 631 nM.
For `CS(=O)(=O)NC(=O)c1nc(N(Cc2ccccc2)c2ccc(C#N)cc2)sc1C(F)(F)F` [Example 230, 2-(N-benzyl-4-cyano-anilino)-N-methylsulfonyl-5-(trifluoromethyl)thiazole-4-carboxamide] the same measures were 126 nM and 1260 nM.
Turning to `Cc1sc(N(Cc2ccccc2)c2ccc3ccccc3c2)nc1C(=O)NS(C)(=O)=O` [Example 232, 2-[benzyl(2-naphthyl)amino]-5-methyl-N-methylsulfonyl-thiazole-4-carboxamide], the EC50 was 200 nM in experiment [1] and greater than 10000 nM in experiment [2].
`CS(=O)(=O)NC(=O)c1nc(N(Cc2ccccc2Cl)c2ccc(C#N)cc2)sc1Br` [Example 240, 5-bromo-2-[N-[(2-chlorophenyl)methyl]-4-cyano-anilino]-N-methylsulfonyl-thiazole-4-carboxamide]: the results for the EC50 in experiment [1] and in experiment [2] were 79.4 nM and 200 nM, respectively.
Take `Cc1sc(N(Cc2ccccc2)c2ccc(S(F)(F)(F)(F)F)cc2)nc1C(=O)NS(C)(=O)=O` [Example 241, 2-[N-benzyl-4-(pentafluorosulfanyl)anilino]-5-methyl-N-methylsulfonyl-thiazole-4-carboxamide]: the results for the EC50 in experiment [1] and in experiment [2] were 316 nM and 1000 nM, respectively.
For `CS(=O)(=O)NC(=O)c1nc(N(Cc2ccccc2F)c2ccc(C#N)cc2)sc1Br` [Example 242, 5-bromo-2-[4-cyano-N-[(2-fluorophenyl)methyl]anilino]-N-methylsulfonyl-thiazole-4-carboxamide] the same measures were 63.1 nM and 100 nM.
For `CS(=O)(=O)NC(=O)c1nc(N(Cc2cccc(F)c2)c2ccc(C#N)cc2)sc1Br` [Example 243, 5-bromo-2-[4-cyano-N-[(3-fluorophenyl)methyl]anilino]-N-methylsulfonyl-thiazole-4-carboxamide] the same measures were 50.1 nM and 63.1 nM.
